From US20060069132A1, “Azolecarboxamide herbicides” (priority 2004, published 2006)

Legend:
large crabgrass = test: Test A pre-/postemergence herbicide test; assay type: in vivo, Digitaria sanguinalis
Summary of the method: (§1)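 Visual injury rating on a 0–100 scale (0 no effect, 100 complete control) versus untreated controls, about ten days after treatment in greenhouse. Pre: directed soil spray onto seeded sandy loam. Post: spray to runoff on plants 2–10 cm tall at one- to two-leaf stage.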

giant foxtail = test: Test A pre-/postemergence herbicide test; assay type: in vivo, Setaria faberi
Summary of the method: as §1

morningglory [1] = test: Test A pre-/postemergence herbicide test; assay type: in vivo, Ipomoea spp.
Summary of the method: as §1

bermudagrass = test: Test C pre-/postemergence herbicide test; assay type: in vivo, Cynodon dactylon
Summary of the method: (§2)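 Pre- and postemergence application, solvent/surfactant formulation; post at 1- to 4-leaf stage (2–18 cm). Greenhouse 12–14 d. Visual rating vs controls, 0 = no effect, 100 = complete control.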

Surinam grass = test: Test C pre-/postemergence herbicide test; assay type: in vivo, Urochloa decumbens
Summary of the method: as §2

corn = test: Test C pre-/postemergence herbicide test; assay type: in vivo, Zea mays
Summary of the method: as §2

goosegrass = test: Test C pre-/postemergence herbicide test; assay type: in vivo, Eleusine indica
Summary of the method: as §2

johnsongrass = test: Test C pre-/postemergence herbicide test; assay type: in vivo, Sorghum halepense
Summary of the method: as §2

morningglory [2] = test: Test C pre-/postemergence herbicide test; assay type: in vivo, Ipomoea coccinea; design: key to Plant response rating, Morningglory: 0 = no effect, 100 = complete control
Summary of the method: as §2

common ragweed = test: Test C pre-/postemergence herbicide test; assay type: in vivo, Ambrosia elatior; design: key to Plant response rating, Ragweed: 0 = no effect, 100 = complete control
Summary of the method: as §2

velvetleaf = test: Test C pre-/postemergence herbicide test; assay type: in vivo, Abutilon theophrasti
Summary of the method: as §2

[3] = Postemergence, 500 g ai/ha, 0 to 100 scale, 0 no effect, 100 complete control
[4] = Postemergence, 2000 g ai/ha, 0 to 100 scale, 0 no effect, 100 complete control
[5] = Preemergence, 500 g ai/ha, visual rating, 0 to 100 scale (0 no effect, 100 complete control)
[6] = Preemergence, 2000 g ai/ha, 0 to 100 scale, 0 no effect, 100 complete control
[7] = 31 g ai/ha, preemergence, scale 0 to 100
[8] = 125 g ai/ha, scale 0 (no effect) to 100 (complete control), visual, 12 to 14 days, preemergence
[9] = 250 g ai/ha, scale 0 to 100 (0 no effect, 100 complete control), visual, 12 to 14 days, preemergence
[10] = postemergence, 125 g ai/ha, scale 0 to 100
[11] = postemergence, 62 g ai/ha, scale 0 to 100
[12] = Postemergence, 250 g ai/ha, scale 0 to 100, 0 no effect, 100 complete control
[13] = Postemergence, 500 g ai/ha, scale 0 to 100

SMILES: CCn1nc(C(C)(C)C)cc1C(=O)Nc1ccc(F)c(C(=O)NCCF)c1 [Compound 60]
- Plant response rating, Crabgrass, Large (large crabgrass; [3]): 20
- Plant response rating, Crabgrass, Large (large crabgrass; [4]): 55
- Crabgrass, Large plant response rating (large crabgrass; [5]): 75
- Crabgrass, Large plant response rating (large crabgrass; [6]): 95
- Plant response rating, Foxtail, Giant (giant foxtail; [3]): 30
- Plant response rating, Foxtail, Giant (giant foxtail; [4]): 60
- Foxtail, Giant plant response rating (giant foxtail; [5]): 55
- Foxtail, Giant plant response rating (giant foxtail; [6]): 90
- Plant response rating, Morningglory (morningglory [1]; [3]): 10
- Plant response rating, Morningglory (morningglory [1]; [4]): 20
- Morningglory plant response rating (morningglory [1]; [5]): 10
- Morningglory plant response rating (morningglory [1]; [6]): 40
- Plant response rating, Bermudagrass (bermudagrass; [7]): 30
- Plant response rating (0 = no effect, 100 = complete control), Bermudagrass (bermudagrass; 62 g ai/ha, preemergence): 80
- Plant response rating, Bermudagrass (bermudagrass; [8]): 100
- Plant response rating, Bermudagrass (bermudagrass; [9]): 100
- Bermudagrass plant response rating (bermudagrass; Postemergence, 250 g ai/ha, scale 0 to 100): 5
- Plant response rating, Bermudagrass (bermudagrass; [10]): 0
- Plant response rating, Bermudagrass (bermudagrass; postemergence, 31 g ai/ha, scale 0 to 100): 0
- Plant response rating, Bermudagrass (bermudagrass; [11]): 0
- Plant response rating, Surinam Grass (Surinam grass; [7]): 0
- Plant response rating (0 = no effect, 100 = complete control), Surinam Grass (Surinam grass; 62 g ai/ha, preemergence): 0
- Plant response rating, Surinam Grass (Surinam grass; [8]): 0
- Plant response rating, Surinam Grass (Surinam grass; [9]): 50
- Plant response rating, Surinam Grass (Surinam grass; [12]): 5
- Plant response rating, Surinam Grass (Surinam grass; [10]): 5
- Plant response rating, Surinam Grass (Surinam grass; [11]): 5
- Plant response rating, Corn (corn; [7]): 0
- Plant response rating (0 = no effect, 100 = complete control), Corn (corn; 62 g ai/ha, preemergence): 0
- Plant response rating, Corn (corn; [8]): 0
- Plant response rating, Corn (corn; [9]): 0
- Plant response rating, Corn (corn; [12]): 0
- Plant response rating, Corn (corn; [10]): 0
- Plant response rating, Corn (corn; [11]): 0
- Plant response rating, Goosegrass (goosegrass; [7]): 10
- Plant response rating (0 = no effect, 100 = complete control), Goosegrass (goosegrass; 62 g ai/ha, preemergence): 55
- Plant response rating, Goosegrass (goosegrass; [8]): 85
- Plant response rating, Goosegrass (goosegrass; [9]): 95
- Plant response rating, Goosegrass (goosegrass; [12]): 5
- Plant response rating, Goosegrass (goosegrass; [10]): 0
- Plant response rating, Goosegrass (goosegrass; [11]): 0
- Plant response rating, Johnsongrass (johnsongrass; [7]): 5
- Plant response rating (0 = no effect, 100 = complete control), Johnsongrass (johnsongrass; 62 g ai/ha, preemergence): 10
- Plant response rating, Johnsongrass (johnsongrass; [8]): 50
- Plant response rating, Johnsongrass (johnsongrass; [9]): 60
- Plant response rating, Johnsongrass (johnsongrass; [12]): 0
- Plant response rating, Johnsongrass (johnsongrass; [10]): 0
- Plant response rating, Johnsongrass (johnsongrass; [11]): 0
- Plant response rating, Morningglory (morningglory [2]; [7]): 0
- Plant response rating (0 = no effect, 100 = complete control), Morningglory (morningglory [2]; 62 g ai/ha, preemergence): 0
- Plant response rating, Morningglory (morningglory [2]; [8]): 5
- Plant response rating, Morningglory (morningglory [2]; [9]): 10
- Plant response rating, Morningglory (morningglory [2]; [12]): 10
- Plant response rating, Morningglory (morningglory [2]; [10]): 10
- Plant response rating, Morningglory (morningglory [2]; [11]): 10
- Plant response rating, Ragweed (common ragweed; [7]): 0
- Plant response rating (0 = no effect, 100 = complete control), Ragweed (common ragweed; 62 g ai/ha, preemergence): 10
- Plant response rating, Ragweed (common ragweed; [8]): 80
- Plant response rating, Ragweed (common ragweed; [9]): 95
- Plant response rating, Ragweed (common ragweed; [12]): 5
- Plant response rating, Ragweed (common ragweed; [10]): 5
- Plant response rating, Ragweed (common ragweed; [11]): 0
- Plant response rating, Velvetleaf (velvetleaf; [7]): 5
- Plant response rating, Velvetleaf (velvetleaf; [8]): 70
- Plant response rating, Velvetleaf (velvetleaf; [9]): 85
- Plant response rating, Velvetleaf (velvetleaf; [12]): 30
- Plant response rating, Velvetleaf (velvetleaf; [10]): 20
- Plant response rating, Velvetleaf (velvetleaf; [11]): 20

SMILES: C#CCOC(=O)c1cccc(NC(=O)c2cc(C(C)(C)C)nn2CC)c1 [Compound 84]
- Crabgrass, Large plant response rating (large crabgrass; [3]): 20
- Plant response rating, Crabgrass, Large (large crabgrass; [4]): 20
- Crabgrass, Large plant response rating (large crabgrass; [5]): 0
- Crabgrass, Large plant response rating (large crabgrass; [6]): 0
- Foxtail, Giant plant response rating (giant foxtail; [3]): 15
- Plant response rating, Foxtail, Giant (giant foxtail; [4]): 10
- Foxtail, Giant plant response rating (giant foxtail; [5]): 0
- Foxtail, Giant plant response rating (giant foxtail; [6]): 0
- Morningglory plant response rating (morningglory [1]; [3]): 5
- Plant response rating, Morningglory (morningglory [1]; [4]): 10
- Morningglory plant response rating (morningglory [1]; [5]): 0
- Plant response rating, Bermudagrass (bermudagrass; [12]): 0
- Surinam Grass plant response rating (Surinam grass; [13]): 10
- Plant response rating, Surinam Grass (Surinam grass; [12]): 0
- Plant response rating, Surinam Grass (Surinam grass; [10]): 0
- Plant response rating, Surinam Grass (Surinam grass; [11]): 0
- Corn plant response rating (corn; [13]): 0
- Plant response rating, Corn (corn; [12]): 0
- Plant response rating, Corn (corn; [10]): 0
- Plant response rating, Corn (corn; [11]): 0
- Goosegrass plant response rating (goosegrass; [13]): 10
- Plant response rating, Goosegrass (goosegrass; [12]): 5
- Plant response rating, Goosegrass (goosegrass; [10]): 0
- Plant response rating, Goosegrass (goosegrass; [11]): 0
- Johnsongrass plant response rating (johnsongrass; [13]): 0
- Plant response rating, Johnsongrass (johnsongrass; [12]): 0
- Plant response rating, Johnsongrass (johnsongrass; [10]): 0
- Plant response rating, Johnsongrass (johnsongrass; [11]): 0
- Morningglory plant response rating (morningglory [2]; [13]): 0
- Plant response rating, Morningglory (morningglory [2]; [12]): 0
- Plant response rating, Morningglory (morningglory [2]; [10]): 0
- Plant response rating, Morningglory (morningglory [2]; [11]): 0
- Ragweed plant response rating (common ragweed; [13]): 0
- Plant response rating, Ragweed (common ragweed; [12]): 0
- Plant response rating, Ragweed (common ragweed; [10]): 0
- Plant response rating, Ragweed (common ragweed; [11]): 0
- Velvetleaf plant response rating (velvetleaf; [13]): 0
- Plant response rating, Velvetleaf (velvetleaf; [12]): 0
- Plant response rating, Velvetleaf (velvetleaf; [10]): 0
- Plant response rating, Velvetleaf (velvetleaf; [11]): 0
